{"source": "patent US20240285555A1", "about": "“COMPOSITIONS FOR THE TREATMENT OF COPPER DEFICIENCY AND METHODS OF USE” (priority 2018, published 2024)", "key": {"coa6Δ cells": {"system": "coa6Δ cells", "test": "Oxygen consumption rate measurement", "type": "cell-based, Saccharomyces cerevisiae", "conditions": "20 nM ES, YP galactose medium", "protocol": "Oxygen Consumption Measurement. For measurements of respiration rates, cells were grown to late log phase in YPGal medium and then washed, counted, and resuspended in fresh YPGal medium at 10^8 cells/ml. The rate of oxygen consumption was then measured at 30° C. using the Oxytherm (Hansatech, Norfolk, UK). Cyanide-sensitive respiration was calculated after the addition of 1 mM KCN, and the cyanide-insensitive respiration was subtracted from the total respiration."}, "[1]": {"system": "yeast coa6Δ cells expressing patient mutations (W26C, W33R and E54X)", "test": "Rescue of yeast coa6Δ cells expressing yeast-human chimeric COA6 with patient mutations", "type": "cell-based, Saccharomyces cerevisiae", "conditions": "10 nM ES", "excerpt": "Reagents. All the copper binding compounds were purchased from Sigma-Aldrich, except Elesclomol (ES), which was purchased from Selleckchem. The yeast-human hybrid (hyCOA6) gene construct was codon optimized for yeast and synthesized using GENEART® Gene Synthesis (Life Technologies). The hybrid gene hyCOA6 was cloned into pRS416 plasmid under the control of the yeast Coa6 native promoter. COA6 patient mutations were introduced by site-directed-mutagenesis (Agilent Technologies QuikChange Lightning) using hyCOA6 as a template. All the constructs were sequenced verified.\nYeast Strains and Culture Conditions. The authenticity of yeast strains was confirmed by PCR as well as by replica plating on dropout plates. Yeast cells were cultured in standard YP growth media including YPD (1% yeast extract, 2% peptone and 2% glucose), YPGal (2% galactose), YPGE (3% glycerol+1% ethanol), or synthetic media (SC glucose). […] Growth in liquid media was measured spectrophotometrically at 600 nm.\nA number of copper-binding pharmacological agents were tested for their ability to rescue respiratory deficient growth of coa6Δ cells. […] To determine the biochemical basis for the observed respiratory rescue of coa6Δ cells, the assembly and activity of CcO-containing mitochondrial respiratory chain supercomplexes was measured by native-polyacrylamide gel electrophoresis blotting and in-gel activity assay, respectively. […]"}, "ctr1Δ cells": {"system": "ctr1Δ cells", "test": "Respiratory growth rescue of ctr1Δ yeast", "type": "cell-based, Saccharomyces cerevisiae", "conditions": "non-fermentable media, 37° C.", "method": "(§1) Yeast Strains and Culture Conditions. The authenticity of yeast strains was confirmed by PCR as well as by replica plating on dropout plates. Yeast cells were cultured in standard YP growth media including YPD (1% yeast extract, 2% peptone and 2% glucose), YPGal (2% galactose), YPGE (3% glycerol+1% ethanol), or synthetic media (SC glucose). For qualitative growth measurement, 10-fold serial dilutions of overnight cultures were spotted on YPD or YPGE plates and incubated at 30° C. and 37° C. for the indicated period. Growth in liquid media was measured spectrophotometrically at 600 nm.\n(§2) ES Rescues Many Different Yeast Mutants with Impaired Copper Metabolism. To test the specificity of ES mediated rescue, a number of yeast mutants of genes required for maintaining cellular and mitochondrial copper homeostasis were shortlisted. Genes were prioritized based on their evolutionary conservation, presence of pathogenic mutations in humans, and/or the existence of a related mouse phenotype (Table 3, shown below). […] Most of the yeast mutants were rescued with ES supplementation, albeit to different degrees, reflecting their distinct roles in cellular and mitochondrial copper homeostasis."}, "ccs1Δ cells": {"system": "ccs1Δ cells", "test": "Respiratory growth rescue of ccs1Δ yeast", "type": "cell-based, Saccharomyces cerevisiae", "conditions": "non-fermentable media, 37° C.", "method": "as §1\nas §2, with “homeostasis. […]” for “homeostasis.”"}, "Ctr1^−/− zebrafish": {"system": "Ctr1^−/− zebrafish", "test": "Cox1 levels in mitochondrial extracts of Ctr1 mutant zebrafish", "type": "in vivo", "conditions": "grown in the presence of ES until 10 dpf", "method": "Zebrafish Experiments. […] Morpholino-based experiments were performed.\nES Supplementation Rescues Copper Deficiency Phenotypes in Zebrafish Models. To determine whether ES can rescue phenotypes associated with copper deficiency in an intact developing vertebrate animal model, zebrafish embryos with a null mutation in the gene encoding the plasma membrane copper importer Ctr1 were utilized. Zebrafish were chosen because of the ability to quickly monitor the pigmentation defect that arises due to the copper requirement of tyrosinase, an enzyme that catalyzes the critical step in melanin biosynthesis. Wild type zebrafish embryos have a characteristic melanin pigmentation pattern visible at 48 hpf. To determine if ES can rescue copper deficiency phenotypes in zebrafish, zebrafish embryos from heterozygous Ctr1 crosses in 10 nM ES were incubated and compared to untreated embryos. […] To determine whether ES can rescue the observed CcO assembly defect, clutches of embryos were grown from heterozygous Ctr1 crosses in the presence of ES until 10 dpf and levels of Cox1 in their mitochondrial extracts were measured."}}}
{"smiles": "CN(NC(=O)CC(=O)NN(C)C(=S)c1ccccc1)C(=S)c1ccccc1", "note": "[ES, elesclomol]", "values": [{"measurement": "oxygen consumption rate", "setting": "coa6Δ cells", "value": "restored the oxygen consumption rate of coa6Δ cells to that of wild type cells"}, {"measurement": "rescue of respiratory growth", "setting": "[1]", "value": "rescued"}, {"measurement": "rescue of respiratory growth", "setting": "ctr1Δ cells", "value": "higher concentration of ES is required to rescue"}, {"measurement": "rescue of the respiratory growth defect", "setting": "ccs1Δ cells", "value": "rescue"}, {"measurement": "Cox1 levels in mitochondrial extracts", "setting": "Ctr1^−/− zebrafish", "value": "almost completely rescued"}]}
